Test system: Elongator complex protein 1 (ELP1, also referred to as IKBKAP)
Assay: IKBKAP-HTRF Assay
Type: cell-based, human
Conditions: FD patient-derived fibroblasts GM04589, 48 hours incubation; for EC2x for IKBKAP protein expression (concentration producing two times the amount of IKBKAP protein vs DMSO vehicle control): 7-point concentration curve; for MFI (maximum fold increase in IKBKAP protein abundance relative to the vehicle control): HTRF
Protocol: The assay is used for the quantitative determination of Elongator complex protein 1 (ELP1, also referred to as IKBKAP) concentration in cell lysates using the HTRF® (Homogeneous Time-Resolved Fluorescence) technology. IKBKAP is detected in a sandwich HTRF assay by use of an anti-IKAP antibody labeled with a donor and an anti-IKAP antibody labeled with an acceptor.
Cells were thawed and incubated in DMEM-10% FBS for 72 hours. Cells were trypsinized, counted, and re-suspended to a concentration of 50,000 cells/mL in DMEM-10% FBS. A 199 μL, aliquot of the cell suspensions were plated at 10,000 cells per well in a 96 well microtiter plate and incubated for 3 to 5 hours. […] Test compounds were serially diluted 3.16-fold in 100% DMSO to generate a 7-point concentration curve. A 1 μL aliquot of 200× compound solution was transferred to cell-containing wells, and cells were incubated for 48 hours in a cell culture incubator (37° C., 5% CO2, 100% relative humidity). Triplicate samples were set up for each compound concentration. After 48 hours, the supernatant was removed from the cells and 50 μL of the 1× LB4 lysis buffer, containing protease inhibitors, was added to the cells and incubated with shaking at room temperature for 1 hour. A 36 μL aliquot of this lysate was subsequently transferred to the 384-well plate containing 4 μL of the antibody solution (1:50 dilution of anti IKAP d2 and anti-IKAP K(9+8) in detection buffer). The 384-well plate was then centrifuged for 1 minute to bring the solutions to the bottom of the plate and incubated overnight at 4° C. Fluorescence for each well of the plate at 665 nm and 620 nm was measured was on the EnVision plate reader (Perkin Elmer). The AF for each sample is calculated by: […]
wherein Signal is the normalized fluorescence for each sample well and Blank is the average normalized average fluorescence for the Blank control wells.
The maximum fold increase (MFI) in IKBKAP protein abundance for compounds of Formula (I) or a form thereof relative to the vehicle control are provided in Table 1. MFI was calculated by dividing the AF value for each sample well by the sample AF for the vehicle control wells.
The EC2× for IKBKAP protein expression obtained from the 7-point concentration curve generated for each test compound according to the protocol in Biological Example 1 are also provided in Table 1. The term “EC2× for IKBKAP protein expression” is defined as the concentration of test compound that is effective in producing two times the amount of IKBKAP protein in a FD patient cell compared to the amount produced from the DMSO vehicle control.

Row | SMILES | EC2x for IKBKAP protein expression (concentration producing two times the amount of IKBKAP protein vs DMSO vehicle control) | MFI (maximum fold increase in IKBKAP protein abundance relative to the vehicle control)
1 | N[C@@H](CO)Cc1cc2nc(Cl)nc(NCc3ccco3)c2s1 [Cpd 22, (2R)-2-amino-3-(2-chloro-4-{[(furan-2-yl)methyl]amino}thieno[3,2-d]pyrimidin-6-yl)propan-l-ol] | ***** (<0.005 μM) | ***** (>4.9)
2 | Cc1c(C[C@H](C)N)sc2c(NCc3ccccc3)nc(Cl)nc12 [Cpd 34, 6-[(2S)-2-aminopropyl]-N-benzyl-2-chloro-7-methylthieno[3,2-d]pyrimidin-4-amine] | ***** (<0.005 μM) | ***** (>4.9)
3 | C[C@H](N)Cc1sc2c(NCc3ccncc3F)nc(Cl)nc2c1Br [Cpd 68, 6-[(2S)-2-aminopropyl]-7-bromo-2-chloro-N-[(3-fluoropyridin-4-yl)methyl]thieno[3,2-d]pyrimidin-4-amine] | ***** (<0.005 μM) | ***** (>4.9)
4 | C[C@H](N)c1sc2c(NCc3ccco3)nc(Cl)nc2c1-c1ccccc1 [Cpd 58, 6-[(1S)-1-aminoethyl]-2-chloro-N-[(furan-2-yl)methyl]-7-phenylthieno[3,2-d]pyrimidin-4-amine] | * (EC2×>1 μM) | * (MFI<1.9)
5 | Cc1c(CCCN)sc2c(NCc3ccco3)nc(Cl)nc12 [Cpd 67, 6-(3-aminopropyl)-2-chloro-N-[(furan-2-yl)methyl]-7-methylthieno[3,2-d]pyrimidin-4-amine] | * (EC2×>1 μM) | * (MFI<1.9)
6 | Cc1csc(CNc2nc(Cl)nc3c(C)c(C[C@H](C)N)sc23)n1 [Cpd 27, 6-[(2S)-2-aminopropyl]-2-chloro-7-methyl-N-[(4-methyl-1,3-thiazol-2-yl)methyl]thieno[3,2-d]pyrimidin-4-amine] | ** (between >0.5 μL and ≤1 μM) | *** (between >2.9 and <3.9)
7 | C[C@H](N)Cc1cc2nc(Cl)nc(NCc3ccncc3)c2s1 [Cpd 9, 6-[(2S)-2-aminopropyl]-2-chloro-N-[(pyridin-4-yl)methyl]thieno[3,2-d]pyrimidin-4-amine] | **** (between >0.005 μM and ≤0.02 μM) | ***** (>4.9)
8 | CC[C@H](N)Cc1sc2c(NCc3ccco3)nc(Cl)nc2c1C [Cpd 13, 6-[(2S)-2-aminobutyl]-2-chloro-N-[(furan-2-yl)methyl]-7-methylthieno[3,2-d]pyrimidin-4-amine] | ***** (<0.005 μM) | ***** (>4.9)
9 | Cc1c(C[C@H](C)N)sc2c(NCc3cnco3)nc(Cl)nc12 [Cpd 75, 6-[(2S)-2-aminopropyl]-2-chloro-7-methyl-N-[(1,3-oxazol-5-yl)methyl]thieno[3,2-d]pyrimidin-4-amine] | *** (between >0.02 μM and ≤0.5 μM) | ***** (>4.9)
10 | CC[C@H](N)Cc1sc2c(NCc3sccc3F)nc(Cl)nc2c1C [Cpd 91, 6-[(2S)-2-aminobutyl]-2-chloro-N-[(3-fluorothiophen-2-yl)methyl]-7-methylthieno[3,2-d]pyrimidin-4-amine] | **** (between >0.005 μM and ≤0.02 μM) | ***** (>4.9)
11 | CN[C@@H](C)Cc1sc2c(NCc3ccco3)nc(Cl)nc2c1C [Cpd 79, 2-chloro-N-[(furan-2-yl)methyl]-7-methyl-6-[(2S)-2-(methylamino)propyl]thieno[3,2-d]pyrimidin-4-amine] | *** (between >0.02 μM and ≤0.5 μM) | **** (between >3.9 and <4.9)
12 | Cc1c(C2CCNC2)sc2c(NCc3ccco3)nc(Cl)nc12 (stereo not drawn) [Cpd 57, 2-chloro-N-[(furan-2-yl)methyl]-7-methyl-6-(pyrrolidin-3-yl)thieno[3,2-d]pyrimidin-4-amine] | *** (between >0.02 μM and ≤0.5 μM) | *** (between >2.9 and <3.9)
13 | C[C@H](N)Cc1sc2c(NCc3cccs3)nc(Cl)nc2c1-c1ccc(Cl)cc1 [Cpd 88, 6-[(2S)-2-aminopropyl]-2-chloro-7-(4-chlorophenyl)-N-[(thiophen-2-yl)methyl]thieno[3,2-d]pyrimidin-4-amine] | * (EC2×>1 μM) | * (MFI<1.9)
14 | Cc1c(C[C@H](C)N)sc2c(NCc3ccco3)nc(C(F)(F)F)nc12 [Cpd 26, 6-[(2S)-2-aminopropyl]-N-[(furan-2-yl)methyl]-7-methyl-2-(trifluoromethyl)thieno[3,2-d]pyrimidin-4-amine] | *** (between >0.02 μM and ≤0.5 μM) | **** (between >3.9 and <4.9)
15 | Cc1c(C[C@H](C)N)sc2c(NCc3sccc3F)nc(Cl)nc12 [Cpd 90, 6-[(2S)-2-aminopropyl]-2-chloro-N-[(3-fluorothiophen-2-yl)methyl]-7-methylthieno[3,2-d]pyrimidin-4-amine] | ***** (<0.005 μM) | ***** (>4.9)
16 | Cc1csc2c(NCc3ccco3)nc(C(F)(F)F)nc12 [Cpd 25, N-[(furan-2-yl)methyl]-7-methyl-2-(trifluoromethyl)thieno[3,2-d]pyrimidin-4-amine] | * (EC2×>1 μM) | * (MFI<1.9)
17 | Cc1c(C[C@@H](N)CO)sc2c(NCc3ccco3)nc(Cl)nc12 [Cpd 19, (2R)-2-Amino-3-(2-chloro-4-{[(furan-2-yl)methyl]amino}-7-methylthieno[3,2-d]pyrimidin-6-yl)propan-1-ol] | ***** (<0.005 μM) | ***** (>4.9)
18 | Cc1c(C[C@H](C)N)sc2c(NCc3ccco3)nc(C3CC3)nc12 [Cpd 17, 6-[(2S)-2-aminopropyl]-2-cyclopropyl-N-[(furan-2-yl)methyl]-7-methylthieno[3,2-d]pyrimidin-4-amine] | * (EC2×>1 μM) | * (MFI<1.9)
19 | Cc1c(C[C@@H](N)CCO)sc2c(NCc3ccco3)nc(Cl)nc12 [Cpd 97, (3S)-3-amino-4-(2-chloro-4-{[(furan-2-yl)methyl]amino}-7-methylthieno[3,2-d]pyrimidin-6-yl)butan-1-ol] | ***** (<0.005 μM) | ***** (>4.9)
20 | Cc1c(C[C@H](C)N)sc2c(NCc3ncccc3F)nc(Cl)nc12 [Cpd 59, 6-[(2S)-2-aminopropyl]-2-chloro-N-[(3-fluoropyridin-2-yl)methyl]-7-methylthieno[3,2-d]pyrimidin-4-amine] | *** (between >0.02 μM and ≤0.5 μM) | **** (between >3.9 and <4.9)
21 | Cc1c(C[C@@H]2CCOC(=O)N2)sc2c(NCc3ccco3)nc(Cl)nc12 [Cpd 52, (4S)-4-[(2-chloro-4-{[(furan-2-yl)methyl]amino}-7-methylthieno[3,2-d]pyrimidin-6-yl)methyl]-1,3-oxazinan-2-one] | * (EC2×>1 μM) | ** (between >1.9 and <2.9)

Source: patent publication US20230057568A1, “COMPOUNDS FOR TREATING FAMILIAL DYSAUTONOMIA” (PTC THERAPEUTICS, INC., priority 2019, published 2023)
